Measurements as given in article PMC8006142 (Journal of Medicinal Chemistry, 2021).

Tests used:
[1] = molecular target: T1, AM1 receptor (Homo sapiens, UniProt O60895+Q16602); test: TR-FRET cAMP accumulation, AM1 receptor cross-screen; assay type: cell-based; conditions: Table 2; read-out: pIC50 AM1 (converted)
T1 construct: expressed in transfected cells; host or cells: GPCR/RAMP-overexpressing cells; the AM1 line itself is not described
Protocol: (§1) The ability of the compounds to inhibit cAMP production induced by an EC50 concentration of the maximum agonist activation (information previously published[34]) in GPCR/RAMP-overexpressing cells (i.e., AM2, CGRP cells) was evaluated using cAMP accumulation assays. Each compound was tested at 8 full-log concentrations (10^–11–10^–5 M) including a negative control (blank). The total cAMP was measured using the TR-FRET LANCE cAMP detection kit (PerkinElmer, AD0264), as described previously.[34] Briefly, frozen cells ([…]) were thawed and prepared in warm stimulation buffer (1× HBSS, 5 mM N-(2-hydroxyethyl)piperazine-N′-ethanesulfonic acid (HEPES), 0.5 mM IBMX, and 0.1% bovine serum albumin (BSA)). Alexa Fluor conjugated anti-cAMP (1:100 concentration) was then added to the cell suspension, and cells were plated (2500 cells, 6 μL) in a 384-well white opaque microtiter plate (OptiPlates, PerkinElmer, 6007299). […] Subsequently, a 12 μL detection mix (Europium-Chelate streptavidin/biotinylated cAMP) was added to stop the reaction and induce cell lysis. TR-FRET was detected after an hour of incubation by an EnSight multimode Plate reader (PerkinElmer) at 320/340 nm excitation and 615/665 nm emission. Data were normalized to agonist only and blank (stimulation buffer only) wells as 0 and 100% cAMP inhibition, respectively.
The final DMSO concentration was below 0.5%, and this was kept consistent in all of the wells, including agonist alone and blank. The same methodology including the number of cells was used for all cell lines. […] No further constraints in any parameters of the curves were used.

[2] = molecular target: CGRP receptor (Homo sapiens, UniProt O60894+Q16602); test: TR-FRET cAMP accumulation, inhibition of agonist-induced cAMP in CGRP receptor-overexpressing cells; assay type: cell-based; conditions: supplementary CSV; read-out: pIC50 CGRPR (converted)
Protocol: as §1, with “respectively. […]” for “respectively.”

[3] = molecular target: AM2 receptor (Homo sapiens, UniProt O60896+Q16602); test: TR-FRET cAMP accumulation, inhibition of agonist-induced cAMP in AM2 receptor-overexpressing cells; assay type: cell-based; conditions: supplementary CSV; read-out: pIC50 AM2R (converted)
Protocol: as §1, with “respectively. […]” for “respectively.”

[4] = test system: MDA-MB-231 tumor; test: Subcutaneous MDA-MB-231 xenograft in BALB/c nude mice; assay type: in vivo
Protocol: The study was performed using 6–7 week old BALB/c nude female mice, with a weight range of 15–20 g. Animals were provided by Envigo Corporation (Cambridgeshire, U.K.) or Charles River Laboratories (Massachusetts) depending on availability. Each experiment started with 10 mice (experimental units) in each experimental/control group. Subsequent analysis (tumor growth and histology) was only performed in animals where tumors had established and were palpable within 3 days of implantation. This was in accordance with the power calculation performed to ensure robust statistical analysis by the University of Sheffield Statistical Service. The animals were housed in individually ventilated cages (with the appropriate bedding and flooring conditions) in environmentally controlled conditions with a 12 h light/dark cycles at ∼26 °C. Mice had access to an adequate amount of water and a 2018 Teklad Global 18% Protein Rodent Diet containing 1.01% calcium (Harlan Laboratories, U.K.). The day-to-day care of the animals was carried out by the technicians in the Biological Services (The University of Sheffield, U.K.). All scientific procedures on animals were carried under the U.K. Home Office Project Licenses (40/3499) and Procedure Individual Licenses.
Compounds were dissolved in DMSO (Sigma-Aldrich, D4540) and sonicated at 37 °C for 10 min. The appropriate volume of solvent (Kolliphor HS15 (1 part, grams), Kollisolv PEG E 400 (3 parts, mL), and PBS (6 parts, mL)) was then added to yield a 6% DMSO/94% solvent solution. These working stocks (8 mg/mL) were further sonicated at 37 °C for 10 min before storing at −20 °C. To make treatment aliquots, equal amounts of the working stock (or vehicle control) and solvent were mixed and sonicated at 37 °C for 10 min (4 mg/mL, equivalent to 20 mg/kg, 3% DMSO/97% solvent). Vehicle control and compounds were sonicated at 37 °C for 10 min prior to ip injections (200 μL per mouse).
Cells were prepared according to standard cell culture techniques. Cell pellets were resuspended in 50% PBS/50% Matrigel (Corning, 354234). Matrigel/PBS cell suspension, needles (25G), and syringes (1 mL) were kept on ice before and during tumor inoculation into mice. Cell suspension (100 μL, 5 × 10^6 cells) was injected subcutaneously into the left flank of 6–7 weeks old female immunodeficient nude athymic mice (BALB/c nude). Once the tumors became palpable (around 100 mm^3), mice were randomized into treatment groups. Mice were treated daily at the same time of the day with an ip injection of 20 mg/kg of compound or vehicle control (200 μL per mouse) until humane end point. […] Tumor size and mouse weights were measured twice a week. At the end of each study, the animals were euthanized following the appropriate procedures listed in the ASPA Act 1986. Vital organs and tumors were stored in 10% neutral-buffered formalin for further histological analysis. The primary experimental outcome was tumor volume. The percentage tumor volume was calculated by normalizing measured tumor volumes to the initial tumor volume prior to the start of treatment on day 5. Simple linear regression was done to compare the line of best fit between the growth curves. Blinding was not used for the in vivo studies.

[5] = test system: MDA-MB-231 cells; test: Real-Time-Glo MT viability assay; assay type: cell-based, human; conditions: 10 μM, daily treatment, after 3 days, versus vehicle-treated controls
Protocol: Cell viability in human breast cancer cells (MDA-MB-231) was quantified using Real-Time-Glo MT Cell Viability Assay (Promega, G9712) as previously described.[34] Cells (2000 cells) were seeded into 96-well white clear-bottom plates (Corning, 3903) in full serum media overnight before washing and changing to suboptimal media (RPMI + 5% FBS + 1% P/S) containing Real-Time-Glo reagents according to the Promega protocol. A baseline luminescence read (prior to treatment) was taken using an EnSight Multimode Plate Reader (PerkinElmer) after an hour of incubation at 37 °C. Cells were then treated with compounds or vehicle control (PBS + 0.05% DMSO) daily. Results were normalized to vehicle-treated controls as 100% viable (Graphpad Prism 7 and 8).

[6] = test system: CGRP; set-up: method as in PMID 24900170, PMID 16161996; conditions: cited from earlier work

T1 sequence (Q16602 23-461): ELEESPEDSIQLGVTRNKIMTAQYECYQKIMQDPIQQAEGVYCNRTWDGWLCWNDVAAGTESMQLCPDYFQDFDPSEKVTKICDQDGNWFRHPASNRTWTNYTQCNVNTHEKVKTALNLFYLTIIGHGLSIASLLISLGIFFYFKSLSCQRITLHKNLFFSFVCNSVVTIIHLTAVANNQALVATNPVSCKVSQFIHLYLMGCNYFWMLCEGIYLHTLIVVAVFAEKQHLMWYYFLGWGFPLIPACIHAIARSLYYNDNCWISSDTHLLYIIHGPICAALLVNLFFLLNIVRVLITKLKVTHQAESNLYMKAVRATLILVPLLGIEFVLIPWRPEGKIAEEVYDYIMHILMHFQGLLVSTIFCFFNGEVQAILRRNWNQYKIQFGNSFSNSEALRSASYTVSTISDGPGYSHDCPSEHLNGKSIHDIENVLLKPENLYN
T1 sequence (O60895 43-175): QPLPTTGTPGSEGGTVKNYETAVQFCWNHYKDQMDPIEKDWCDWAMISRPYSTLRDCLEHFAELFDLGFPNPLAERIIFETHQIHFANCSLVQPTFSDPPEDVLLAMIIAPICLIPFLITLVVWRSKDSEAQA
Sequence of AM2 receptor (Q16602 23-461): as the sequence (Q16602 23-461) above
Sequence of AM2 receptor (O60896 24-148): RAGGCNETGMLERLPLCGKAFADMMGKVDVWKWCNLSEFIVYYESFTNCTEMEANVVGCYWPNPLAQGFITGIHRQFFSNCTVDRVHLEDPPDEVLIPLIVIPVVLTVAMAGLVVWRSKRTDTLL
Sequence of CGRP receptor (Q16602 23-461): as the sequence (Q16602 23-461) above
Sequence of CGRP receptor (O60894 27-148): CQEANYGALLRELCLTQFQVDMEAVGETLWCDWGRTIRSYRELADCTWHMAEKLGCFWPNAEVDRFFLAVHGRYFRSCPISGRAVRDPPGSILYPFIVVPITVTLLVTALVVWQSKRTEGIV

Compound | IC50 [1] | also measured
CN1CCCC(CN(CC(=O)Nc2ccc3c(c2)CC2(C3)C(=O)Nc3ncccc32)C(=O)C(C)(C)C)C1 (racemic) [(±)-6, N-((1-Methylpiperidin-3-yl)methyl)-N-(2-oxo-2-((2′-oxo-1,1′,2′,3-tetrahydrospiro[indene-2,3′-pyrrolo[2,3-b]pyridin]-5-yl)amino)ethyl)pivalamide] | > 10 µM | –
CC(N)c1ccccc1CN(CC(=O)Nc1ccc2c(c1)CC1(C2)C(=O)Nc2ncccc21)C(=O)C(C)(C)C (racemic) [(±)-29, N-(2-(1-Aminoethyl)benzyl)-N-(2-oxo-2-((2′-oxo-1,1′,2′,3-tetrahydrospiro[indene-2,3′-pyrrolo[2,3-b]pyridin]-5-yl)amino)ethyl)pivalamide] | > 10 µM | –
CC(C)(C)C(=O)N(CC(=O)Nc1ccc2c(c1)CC1(C2)C(=O)Nc2ncccc21)Cc1ccccn1 (stereo not shown) [Compound 5, N-(2-Oxo-2-((2′-oxo-1,1′,2′,3-tetrahydrospiro[indene-2,3′-pyrrolo[2,3-b]pyridin]-5-yl)amino)ethyl)-N-(pyridin-2-ylmethyl)pivalamide] | 50.1 µM | –
CC(C)(C)C(=O)N(CC(=O)Nc1ccc2c(c1)CC1(C2)C(=O)Nc2ncccc21)Cc1nccs1 (stereo not shown) [Compound 8, N-(2-Oxo-2-((2′-oxo-1,1′,2′,3-tetrahydrospiro[indene-2,3′-pyrrolo[2,3-b]pyridin]-5-yl)amino)ethyl)-N-(thiazol-2-ylmethyl)pivalamide] | 25.1 µM | –
CC(C)(C)C(=O)N(CC(=O)Nc1ccc2c(c1)CC1(C2)C(=O)Nc2ncccc21)Cc1ccccc1CN (stereo not shown) [Compound 12, N-(2-(Aminomethyl)benzyl)-N-(2-oxo-2-((2′-oxo-1,1′,2′,3-tetrahydrospiro[indene-2,3′-pyrrolo[2,3-b]pyridin]-5-yl)amino)ethyl)pivalamide] | 7.94 µM | –
CC(C)(C)C(=O)N(CC(=O)Nc1ccc2c(c1)CC1(C2)C(=O)Nc2ncccc21)Cc1ccccc1CO (stereo not shown) [Compound 13, N-(2-(Hydroxymethyl)benzyl)-N-(2-oxo-2-((2′-oxo-1,1′,2′,3-tetrahydrospiro[indene-2,3′-pyrrolo[2,3-b]pyridin]-5-yl)amino)ethyl)pivalamide] | 1.26 µM | –
CC(C)(C)C(=O)N(CC(=O)Nc1ccc2c(c1)CC1(C2)C(=O)Nc2ncccc21)Cc1ccccc1C(N)=O (stereo not shown) [Compound 15, 2-((N-(2-Oxo-2-((2′-oxo-1,1′,2′,3-tetrahydrospiro[indene-2,3′-pyrrolo[2,3-b]pyridin]-5-yl)amino)ethyl)pivalamido)methyl)benzamide] | 6.31 µM | –
CC(C)(C)C(=O)N(CC(=O)Nc1ccc2c(c1)CC1(C2)C(=O)Nc2ncccc21)Cc1ccccc1CNCc1ncc[nH]1 (stereo not shown) [Compound 23, N-(2-((((1H-Imidazol-2-yl)methyl)amino)methyl)benzyl)-N-(2-oxo-2-((2′-oxo-1,1′,2′,3-tetrahydrospiro[indene-2,3′-pyrrolo[2,3-b]pyridine]-5-yl)amino)ethyl)pivalamide] | – | IC50 [2]: 0.00398 µM; IC50 [3]: 0.251 µM
CNCc1ccccc1CN(CC(=O)Nc1ccc2c(c1)CC1(C2)C(=O)Nc2ncccc21)C(=O)C(C)(C)C (stereo not shown) [Compound 25] | 2 µM | tumor growth rates ([4]; 20 mg/kg ip daily, simple linear regression, p < 0.001): significantly reduced; adverse effects ([4]; 20 mg/kg ip once daily): No adverse effects were observed; body weight compared with vehicle-treated mice ([4]; 20 mg/kg ip once daily): did not differ significantly; tolerability ([4]; 20 mg/kg ip once daily): well tolerated; decrease of breast cancer xenograft tumor growth ([4]; 20 mg/kg ip once daily, 4 weeks after treatment, versus vehicle): 47%; decrease of MDA-MB-231 viability [5]: 55%
CC(C)(C)C(=O)N(CC(=O)Nc1ccc2c(c1)CC1(C2)C(=O)Nc2ncccc21)Cc1ccccc1CNC1CC1 (stereo not shown) [Compound 26, N-(2-((Cyclopropylamino)methyl)benzyl)-N-(2-oxo-2-((2′-oxo-1,1′,2′,3-tetrahydrospiro[indene-2,3′-pyrrolo[2,3-b]pyridin]-5-yl)amino)ethyl)pivalamide] | 3.16 µM | –
CC(C)(C)C(=O)N(CC(=O)Nc1ccc2c(c1)CC1(C2)C(=O)Nc2ncccc21)Cc1ccccc1CN1CCC1 (stereo not shown) [Compound 27, N-(2-(Azetidin-1-ylmethyl)benzyl)-N-(2-oxo-2-((2′-oxo-1,1′,2′,3-tetrahydrospiro[indene-2,3′-pyrrolo[2,3-b]pyridine]-5-yl)amino)ethyl)pivalamide] | 2 µM | –
O=C(CN1C(=O)C2(CCCC2)NC[C@H]1c1cc(F)cc(F)c1)Nc1ccc2c(c1)C[C@@]1(C2)C(=O)Nc2ncccc21 [MK-3207] | – | CGRP potency [6]: 0.00012 µM
